Laboratory results reported in paper PMC6179248, “Peanut-specific T cell responses in patients with different clinical reactivity” (PLoS ONE, 2018).

Columns and labels:
[1] = test system: PBMC from peanut allergic and non-allergic donors (IFNγ production); experiment: IFNγ ELISPOT with individual peptides after 14-day in vitro expansion (epitope mapping); assay type: cell-based, human; settings: SFC per 10^6 PBMC, individual peptide 10 μg/ml, 24 h, after 14-day culture; for IFNg Average SFC (controls): non-allergic controls; for IFNg Average SFC (allergics): allergic donors
Method: (§1) For in vitro expansions, PBMCs were thawed and cultured in RPMI 1640 (Omega Scientific, Tarzana, CA) supplemented with 5% human AB serum (Gemini Bio-Products, West Sacramento, CA) at a density of 2 × 10^6 cells per mL in 24-well plates (Corning, San Diego, CA) and stimulated with peanut extract (10 μg/ml) or peptide pools at 5 μg/mL. Cells were kept at 37°C, 5% CO2, and additional IL-2 (10 U/mL; ThermoFisher, San Diego, CA) was added every 3 days after initial antigenic stimulation. On day 14, cells were harvested and reactivity against peanut extract (10 μg/ml), peanut specific peptide pools (5 μg/ml) and individual peptides (10 μg/ml) was assessed. The production of IL-5 and IFNγ post-stimulation with peanut extract was analyzed in dual ELISPOT assays. Flat-bottom 96-well nitrocellulose plates (Millipore, Bedford, MA) were prepared according to the manufacturer’s instructions and coated with either 10 μg/ml of both anti-human IL-5 (clone TRFK5) and anti-human IFNγ (clone 1-D1K) or anti-human IL-10 (clone 9D7) and anti-human IL-17 (clone MT44.6) (Mabtech, Cincinnati, OH). PBMC were then incubated at a density of 1 × 10^5/well either with peptide pools (5 μg/ml) or individual peptides (10 μg/ml), peanut extract (10 μg/ml), PHA (10 μg/ml), or medium containing 0.25% DMSO (corresponding to the highest percentage of DMSO in the pools/peptides condition) as a control. After 24 h, cells were removed, and plates were incubated with a cocktail containing either biotinylated anti-human IL-5 (1:50 dilution) (clone 5A10) and horseradish peroxidase (HRP)-conjugated anti-human IFNγ (1:200 dilution) (clone 7-B6-1) or biotinylated anti-human IL-17 (1:200 dilution) (clone MT504) anti-human alkaline phosphatase (AP)-conjugated IL-10 (1:200 dilution) (clone 12G8) (Mabtech, Cincinnati, OH) at 37°C. After 2 h, spots corresponding to the biotinylated IL-5 Ab were developed by incubation with Alkaline-phosphatase-Complex (Vector Laboratories, Burlingame, CA) and then visualized by applying the Vector Blue Alkaline Phosphatase Substrate Kit III (Vector Laboratories, Burlingame, CA) according to the manufacturer’s instructions. Spots corresponding to the HRP-conjugated anti-human IFNγ Ab were visualized by incubation with 3-amino-9-ethylcarvazole solution (Sigma-Aldrich, St. Louis, MO). Spots were counted by computer-assisted image analysis (KS-ELISPOT reader, Zeiss, Munich). Each assay was performed in triplicate. The level of statistical significance was determined with a Student t test using the mean of triplicate values of the response against relevant pools or individual peptides versus the response against the DMSO control. Criteria for response positivity were 20 spot-forming cells (SFCs)/10^6 PBMC, p ≤ 0.05, and a stimulation index (SI) ≥ 2. SFCs are measured per 10^5 PBMC, subsequently readings are background subtracted and multiplied by 10 to be expressed as SFC per million PBMC. T cell epitope mapping was performed to determine epitopes from the major peanut allergens Ara h 1, 2 and 3, recognized by peanut allergic (n = 11) and non-allergic (n = 10) donors. As these studies were performed with samples obtained from pediatric patients, available blood sample volumes were limiting. To overcome this limitation, small pools of predicted peptides matched to the HLA molecules expressed in each donor were tested. For each donor, class II binding affinity predictions were performed using algorithms available through the IEDB (www.iedb.org)[18], to identify the top 6 predicted binders for each of the alleles expressed at the four HLA class II loci (DRB1, DRB3/4/5, DQB1, and DPB1). Accordingly, the screening load for each donor was reduced from 400 peptides to a maximum of 48 peptides (6 peptides x ≤8 class II molecules, less for homozygous donors). The six top predicted peptides for each allele were used to generate allele-specific pools, which were in turn used to expand peanut-specific cells in vitro. […]

[2] = test system: PBMC from peanut allergic and non-allergic donors (IL-5 production); experiment: IL-5 ELISPOT with individual peptides after 14-day in vitro expansion (epitope mapping); assay type: cell-based, human; settings: SFC per 10^6 PBMC, individual peptide 10 μg/ml, 24 h, after 14-day culture; for IL-5 Average SFC (controls): non-allergic controls; for IL-5 Average SFC (allergics): allergic donors
Method: as §1

Row | Sequence | IFNg Average SFC (controls) [1] | IL-5 Average SFC (controls) [2] | IFNg Average SFC (allergics) [1] | IL-5 Average SFC (allergics) [2]
1 | LLGILVLASVSATHA [Ara h 1 15-mer, position 11] | 80 SFC | 0 SFC |  | 
2 | IPSGFISYILNRHDN [Ara h 1 15-mer, position 266] | 0 SFC | 180 SFC | 0 SFC | 78 SFC
3 | GSRPHYRQISPRVRG [Ara h 3 15-mer, position 216] | 57 SFC | 287 SFC | 0 SFC | 203 SFC
4 | DVFIMPAAHPVAINA [Ara h 1 15-mer, position 508] | 0 SFC | 34 SFC |  | 
5 | QEFQCAGVALSRTVL [Ara h 3 15-mer, position 61] | 34 SFC | 98 SFC |  | 
6 | NELNLLILRWLGLSA [Ara h 3 15-mer, position 386] | 0 SFC | 607 SFC | 0 SFC | 0 SFC
7 | NHRIVQIEARPNTLV [Ara h 1 15-mer, position 211] | 303 SFC | 427 SFC |  | 
8 | PHFNSKAMVIVVINK [Ara h 1 15-mer, position 446] | 58 SFC | 0 SFC | 15 SFC | 41 SFC
9 | VTVKGGLRILSPDEE [Ara h 3 15-mer, position 276] | 433 SFC | 653 SFC |  | 
10 | GRIRVLQRFDQRSKQ [Ara h 1 15-mer, position 191; P19 pool member] | 197 SFC | 66 SFC | 49 SFC | 253 SFC
11 | TLNAHTIVVALNGRA [Ara h 3 15-mer, position 391] | 61 SFC | 64 SFC | 16 SFC | 97 SFC
12 | FVPHYTLNAHTIVVA [Ara h 3 15-mer, position 386] | 94 SFC | 70 SFC | 117 SFC | 163 SFC
13 | NPINLREGEPDLSNN [Ara h 1 15-mer, position 396] | 240 SFC | 457 SFC |  | 
14 | SRTVLRRNALRRPFY [Ara h 3 15-mer, position 71] | 377 SFC | 647 SFC |  | 
15 | EQGAIVTVRGGLRIL [Ara h 3 15-mer, position 296] | 252 SFC | 205 SFC | 142 SFC | 78 SFC
16 | SPLMLLLGILVLASV [Ara h 1 15-mer, position 6] | 0 SFC | 30 SFC | 0 SFC | 0 SFC
17 | LLGILVLASVSATQA [Ara h 1 15-mer, position 11] | 145 SFC | 0 SFC |  | 
18 | FCFLVLGASSISFRQ [Ara h 3 15-mer, position 11] | 0 SFC | 25 SFC |  | 
19 | RNNPFYFPSRRFSTR [Ara h 1 15-mer, position 171] |  |  | 0 SFC | 100 SFC
20 | GRIRVLQRFDQRSRQ [Ara h 1 15-mer, position 191; P19 pool member] | 168 SFC | 105 SFC | 19 SFC | 227 SFC
21 | TIVVALNGRAHVQVV [Ara h 3 15-mer, position 396] | 548 SFC | 567 SFC | 415 SFC | 148 SFC
22 | QSENYEYLAFKTDSR [Ara h 3 15-mer, position 441] | 95 SFC | 419 SFC | 0 SFC | 0 SFC
23 | SRLVLRRNALRRPFY [Ara h 3 15-mer, position 71; P19 pool member] | 341 SFC | 941 SFC | 19 SFC | 27 SFC
24 | SIIYALRGRAHVQVV [Ara h 3 15-mer, position 421; P19 pool member] | 249 SFC | 358 SFC | 89 SFC | 400 SFC
25 | RLKEGDVFIMPAAHP [Ara h 1 15-mer, position 503] | 83 SFC | 120 SFC |  | 
26 | QAGENSIIDNLPEEV [Ara h 3 15-mer, position 461; P19 pool member] | 0 SFC | 33 SFC | 61 SFC | 79 SFC
27 | FQNLQNHRIVQIEAK [Ara h 1 15-mer, position 206; P19 pool member] | 0 SFC | 0 SFC | 0 SFC | 74 SFC
28 | GSNIFSGFAQEFLQH [Ara h 3 15-mer, position 237] | 0 SFC | 29 SFC |  | 
29 | LQDLDMMLTCVEIKE [Ara h 1 15-mer, position 426] | 158 SFC | 403 SFC | 0 SFC | 0 SFC
30 | SNREVRRYTARLKEG [Ara h 1 15-mer, position 493] | 108 SFC | 527 SFC | 42 SFC | 20 SFC
